Assay results reported in ChEMBL document CHEMBL1201862, “PubChem BioAssay data set” (2004).
The source made the active and inactive calls. Rule as the data show it, for most assays here: actives have a measured EC50 and inactives only a lower limit.

How the values were obtained:
[1] = target: T1, Polyadenylate-binding protein 1 (Homo sapiens, UniProt P11940); assay: MLLE binding blockers, Cy5 peptide tracer – biochemical, fluorescence polarization, Cy5-PAM2 peptide, secondary, miRNA deadenylation inhibitor project, dose response (AID 602260); type: functional; conditions: read-out: IC50_Mean
T1 sequence (P11940 whole entry, the tested form may be a part): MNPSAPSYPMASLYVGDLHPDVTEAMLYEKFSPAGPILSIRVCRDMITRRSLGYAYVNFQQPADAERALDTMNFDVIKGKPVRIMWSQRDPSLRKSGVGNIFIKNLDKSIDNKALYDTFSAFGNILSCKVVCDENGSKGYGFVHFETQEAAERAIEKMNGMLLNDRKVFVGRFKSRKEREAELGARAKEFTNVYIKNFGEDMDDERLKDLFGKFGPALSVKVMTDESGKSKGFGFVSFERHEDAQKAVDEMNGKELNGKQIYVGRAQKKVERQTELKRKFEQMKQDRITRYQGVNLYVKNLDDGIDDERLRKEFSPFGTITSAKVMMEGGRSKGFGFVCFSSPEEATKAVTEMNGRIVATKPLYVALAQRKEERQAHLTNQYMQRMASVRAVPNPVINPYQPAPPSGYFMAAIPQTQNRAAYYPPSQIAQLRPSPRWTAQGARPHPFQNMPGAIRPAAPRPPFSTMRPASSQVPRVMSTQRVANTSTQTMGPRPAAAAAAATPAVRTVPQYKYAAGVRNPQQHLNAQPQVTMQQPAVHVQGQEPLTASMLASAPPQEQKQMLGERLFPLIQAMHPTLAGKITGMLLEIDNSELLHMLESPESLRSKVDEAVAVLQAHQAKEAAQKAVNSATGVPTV

[2] = target: T1, Polyadenylate-binding protein 1; assay: MLLE domain peptide-binding blockers, IC50 – biochemical, fluorescence polarization, FITC-PAM2 peptide, dose response (AID 602259); type: functional; conditions: read-out: IC50_Mean
[3] = target: T2, Heat shock factor protein 1 (Mus musculus, UniProt P38532); assay: enhancement of HSF1-driven luciferase signal – cell-based, NIH3T3, luminescence, dose retest, confirmation (AID 435004); type: functional;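 also: stress induced by proteasome inhibitor MG132 added 30 min after compound; luciferase reporter driven by HSF1 response element in NIH3T3 cells; actives raise luminescence as potentiators of the MG132 stress response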
T2 sequence (P38532 whole entry): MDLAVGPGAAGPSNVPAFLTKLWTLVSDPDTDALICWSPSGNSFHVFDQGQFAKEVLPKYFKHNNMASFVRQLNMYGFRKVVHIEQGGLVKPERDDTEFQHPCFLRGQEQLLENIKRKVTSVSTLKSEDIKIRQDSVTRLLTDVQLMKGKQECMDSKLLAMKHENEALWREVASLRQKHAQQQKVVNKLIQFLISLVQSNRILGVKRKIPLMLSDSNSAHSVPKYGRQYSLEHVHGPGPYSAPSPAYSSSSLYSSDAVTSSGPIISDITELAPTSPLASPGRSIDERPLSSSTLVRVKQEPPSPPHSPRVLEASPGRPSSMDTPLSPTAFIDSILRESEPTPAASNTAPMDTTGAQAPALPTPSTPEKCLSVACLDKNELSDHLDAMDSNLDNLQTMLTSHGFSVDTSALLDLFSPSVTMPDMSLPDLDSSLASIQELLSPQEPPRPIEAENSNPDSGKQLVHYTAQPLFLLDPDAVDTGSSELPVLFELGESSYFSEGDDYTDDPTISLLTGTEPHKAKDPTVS

[4] = target: Large T antigen (Simian virus 40, UniProt P03070); type: functional, Betapolyomavirus macacae;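 also: Confirmatory-stage PubChem screen for compounds that inhibit SV40 T antigen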
Chain of Large T antigen (P03070 whole entry): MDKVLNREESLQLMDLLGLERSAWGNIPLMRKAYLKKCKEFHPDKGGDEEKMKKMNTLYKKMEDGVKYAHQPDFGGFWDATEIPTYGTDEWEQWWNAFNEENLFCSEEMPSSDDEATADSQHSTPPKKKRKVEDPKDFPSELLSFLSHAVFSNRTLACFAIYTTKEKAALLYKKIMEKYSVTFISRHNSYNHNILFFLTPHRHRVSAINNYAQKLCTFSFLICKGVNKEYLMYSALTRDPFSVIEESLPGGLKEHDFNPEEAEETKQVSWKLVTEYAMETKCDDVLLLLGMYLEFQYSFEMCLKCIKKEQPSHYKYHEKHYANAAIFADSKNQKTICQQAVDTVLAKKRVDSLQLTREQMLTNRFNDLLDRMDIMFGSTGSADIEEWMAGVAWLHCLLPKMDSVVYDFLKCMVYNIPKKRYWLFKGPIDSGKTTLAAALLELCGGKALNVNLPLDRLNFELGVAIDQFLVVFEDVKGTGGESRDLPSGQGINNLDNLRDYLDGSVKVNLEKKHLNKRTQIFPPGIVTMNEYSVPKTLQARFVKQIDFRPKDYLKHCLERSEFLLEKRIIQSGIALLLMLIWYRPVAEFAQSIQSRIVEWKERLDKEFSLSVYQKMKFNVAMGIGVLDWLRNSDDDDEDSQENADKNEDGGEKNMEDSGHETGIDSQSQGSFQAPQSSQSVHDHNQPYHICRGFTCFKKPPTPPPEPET

[5] = alpha-synuclein stem-loop luciferase translation blockers – H4 neuroglioma cells, luminescence, confirmation (AID 1988); type: functional, cell-based
[6] = fluconazole-exposed Candida albicans growth modulators – fluorescence, retest, confirmation (AID 2467); type: functional, cell-based
[7] = NIH-3T3 fibroblast cytotoxicity, dose response, cytotoxicity control, cell-based, fluorescence, Alamar Blue, secondary assay (AID 2327); type: functional;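 also: NIH-3T3 mouse fibroblasts cultured with fluconazole at 8 µg/mL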
[8] = luciferase reporter signal suppression in cells – H4 neuroglioma cells, luminescence, dose response (AID 1990); type: functional, cell-based
[9] = Luminescence Cell-Based Dose Response HTS to Identify Inhibitors of 5'UTR Stem-Loop Driven Prion Protein mRNA Translation in H4 Neuroglioblastoma Cells. [Related pubchem assays: 1827 (Project Summary), 1813 (Primary HTS)]; type: functional
[10] = cells; type: functional
[11] = target: T3, Rac GTPase-activating protein 1 (Homo sapiens, UniProt Q9H0H5); assay: blockers of MgcRacGAP-driven Rac1 GTP hydrolysis – biochemical, ADP Hunter fluorescence, primary and confirmatory, confirmation (AID 624330); type: functional
T3 sequence (Q9H0H5 whole entry): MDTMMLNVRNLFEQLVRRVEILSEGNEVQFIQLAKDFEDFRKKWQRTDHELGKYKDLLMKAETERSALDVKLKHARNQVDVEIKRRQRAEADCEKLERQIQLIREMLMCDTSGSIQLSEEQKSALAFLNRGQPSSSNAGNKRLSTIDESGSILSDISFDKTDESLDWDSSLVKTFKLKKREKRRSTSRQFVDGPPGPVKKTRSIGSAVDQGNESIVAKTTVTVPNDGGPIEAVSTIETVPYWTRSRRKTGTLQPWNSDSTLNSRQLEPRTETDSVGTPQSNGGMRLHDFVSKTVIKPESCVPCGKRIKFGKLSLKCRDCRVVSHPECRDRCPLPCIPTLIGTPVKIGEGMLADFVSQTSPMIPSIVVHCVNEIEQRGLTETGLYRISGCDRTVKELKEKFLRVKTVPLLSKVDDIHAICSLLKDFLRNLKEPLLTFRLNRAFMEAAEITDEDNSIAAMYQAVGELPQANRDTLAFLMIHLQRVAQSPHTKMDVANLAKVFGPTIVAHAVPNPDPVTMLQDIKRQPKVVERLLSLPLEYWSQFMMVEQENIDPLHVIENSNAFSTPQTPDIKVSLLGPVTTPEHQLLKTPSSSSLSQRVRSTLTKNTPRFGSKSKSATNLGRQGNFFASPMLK

[12] = Luminescence Cell-Based Dose Retest to Confirm Inhibitors of Cancer Stem Cells. [Related pubchem assays (depositor defined):AID2717, AID2721]; type: functional; conditions: Homo sapiens
[13] = target: T4, Streptokinase A (Streptococcus pyogenes serotype M1, UniProt P10520); assay: viability-normalized secreted streptokinase activity reduction – plasminogen activation absorbance, OD405, dose response (AID 1914); type: functional, Streptococcus pyogenes M1 GAS;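 also: secreted streptokinase activity via plasminogen activation per viability signal from cell pellet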
T4 sequence (P10520 whole entry): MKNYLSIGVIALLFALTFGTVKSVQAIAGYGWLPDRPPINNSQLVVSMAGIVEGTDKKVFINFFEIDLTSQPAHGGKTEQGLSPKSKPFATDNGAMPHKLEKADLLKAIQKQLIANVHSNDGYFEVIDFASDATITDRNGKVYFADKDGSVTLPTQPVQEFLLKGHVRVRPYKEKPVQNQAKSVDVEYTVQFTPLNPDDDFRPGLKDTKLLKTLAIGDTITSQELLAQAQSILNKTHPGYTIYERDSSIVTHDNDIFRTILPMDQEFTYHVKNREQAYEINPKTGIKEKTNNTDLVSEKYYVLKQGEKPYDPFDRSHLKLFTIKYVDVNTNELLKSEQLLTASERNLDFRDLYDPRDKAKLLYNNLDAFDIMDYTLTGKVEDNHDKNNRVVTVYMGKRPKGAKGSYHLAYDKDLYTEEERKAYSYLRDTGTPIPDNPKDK

[14] = system: Streptococcus; assay: GAS UMAA2166 growth inhibition – luminescence, BacTiterGlo, counter-screen for streptokinase expression inhibitor project, dose response (AID 1915); type: functional, organism-based;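 also: potency for reduction of bacterial viability or growth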
[15] = system: Streptococcus sp. 'group A'; assay: Streptococcus pyogenes SK(-)GAS viability under kanamycin – luminescence, BacTiterGlo, confirmation, counter-screen for streptokinase expression inhibitor project, dose response (AID 1900); type: functional, organism-based
[16] = target: T5, Protein RecA (Mycobacterium tuberculosis, UniProt P9WHJ3); assay: Fluorescence Cell-Free Homogeneous Dose Retest to Identify Inhibitors of RecA-Intein Splicing Activity. [Related pubchem assays (depositor defined):AID2097, AID2223, AID489010, AID492950]; type: functional
T5 sequence (P9WHJ3 whole entry): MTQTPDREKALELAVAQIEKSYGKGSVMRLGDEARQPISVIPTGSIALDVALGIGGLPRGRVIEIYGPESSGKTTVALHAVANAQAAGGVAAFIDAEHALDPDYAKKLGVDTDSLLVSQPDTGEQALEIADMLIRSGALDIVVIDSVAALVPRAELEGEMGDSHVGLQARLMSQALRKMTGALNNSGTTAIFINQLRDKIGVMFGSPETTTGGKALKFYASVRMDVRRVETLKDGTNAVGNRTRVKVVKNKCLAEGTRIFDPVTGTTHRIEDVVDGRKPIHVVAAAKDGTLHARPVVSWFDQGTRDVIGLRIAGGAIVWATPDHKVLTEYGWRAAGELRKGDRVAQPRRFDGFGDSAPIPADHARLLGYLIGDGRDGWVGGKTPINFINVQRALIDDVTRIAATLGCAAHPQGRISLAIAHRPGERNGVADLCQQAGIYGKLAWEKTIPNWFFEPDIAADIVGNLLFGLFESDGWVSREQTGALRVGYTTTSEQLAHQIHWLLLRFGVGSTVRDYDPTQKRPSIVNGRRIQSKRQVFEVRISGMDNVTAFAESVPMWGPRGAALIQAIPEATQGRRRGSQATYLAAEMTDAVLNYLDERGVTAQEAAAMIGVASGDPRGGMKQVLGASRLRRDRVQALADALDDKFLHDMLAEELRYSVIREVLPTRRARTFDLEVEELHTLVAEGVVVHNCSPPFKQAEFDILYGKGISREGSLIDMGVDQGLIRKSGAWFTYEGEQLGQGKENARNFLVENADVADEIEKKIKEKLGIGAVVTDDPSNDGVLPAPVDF

[17] = system: INS1; assay: INS-1E survival protection against cytokine death – cell-based, luminescence, retest, dose response (AID 449756); type: functional; conditions: Rattus norvegicus;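 also: cell death triggered by IL-1 beta plus TNF-alpha plus IFN-gamma mixture; protective hits raise ATP signal compared with cytokine alone wells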
[18] = target: T6, Replicative DNA helicase DnaB (Mycobacterium tuberculosis, UniProt P9WMR3); assay: DnaB intein splicing inhibitors, dose response, biochemical, cell-free fluorescence (AID 449749); type: functional
T6 sequence (P9WMR3 whole entry): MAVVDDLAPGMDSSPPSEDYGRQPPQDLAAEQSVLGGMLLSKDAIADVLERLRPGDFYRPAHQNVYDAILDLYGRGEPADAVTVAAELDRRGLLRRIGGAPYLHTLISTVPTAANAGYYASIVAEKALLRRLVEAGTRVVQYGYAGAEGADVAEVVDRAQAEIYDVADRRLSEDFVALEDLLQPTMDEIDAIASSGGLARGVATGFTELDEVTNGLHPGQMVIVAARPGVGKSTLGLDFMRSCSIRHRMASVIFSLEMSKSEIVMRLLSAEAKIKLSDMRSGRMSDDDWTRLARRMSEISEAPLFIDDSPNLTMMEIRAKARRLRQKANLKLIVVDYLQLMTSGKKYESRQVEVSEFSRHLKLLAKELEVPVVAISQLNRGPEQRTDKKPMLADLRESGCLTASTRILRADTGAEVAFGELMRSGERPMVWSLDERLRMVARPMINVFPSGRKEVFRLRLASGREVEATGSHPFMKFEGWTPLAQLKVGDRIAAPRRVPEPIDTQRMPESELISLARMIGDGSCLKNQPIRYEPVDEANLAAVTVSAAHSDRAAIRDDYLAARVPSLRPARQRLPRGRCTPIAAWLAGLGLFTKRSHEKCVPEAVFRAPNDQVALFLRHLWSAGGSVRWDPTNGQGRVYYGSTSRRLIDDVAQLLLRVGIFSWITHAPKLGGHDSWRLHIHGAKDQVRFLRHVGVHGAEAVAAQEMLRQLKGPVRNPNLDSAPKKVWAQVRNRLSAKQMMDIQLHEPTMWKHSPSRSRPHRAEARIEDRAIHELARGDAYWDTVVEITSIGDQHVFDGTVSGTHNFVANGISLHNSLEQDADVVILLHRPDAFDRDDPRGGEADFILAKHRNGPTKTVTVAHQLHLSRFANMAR

[19] = NIH3T3 cell viability loss – ATP luminescence, mouse fibroblasts, counter-screen, dose response (AID 2010); type: functional, cell-based;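 also: cells exposed to compound for about 90 hours before reading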
[20] = Trypanosoma cruzi growth suppression in host cells – NIH3T3 host cells, beta-gal luminescence, confirmation (AID 2044); type: functional, cell-based;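 also: intracellular parasites grown in NIH/3T3 mouse fibroblasts as host cells; luminescent beta-galactosidase reporter signal from transgenic T. cruzi replicating inside host cells; inhibitors lower the luminescence signal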

O=C(NC(=S)Nc1cccnc1)c1cc2ccccc2o1
IC50 [1]: > 66 µM (inactive) | IC50 [2]: > 66 µM (inactive)

O=C(CSc1nccn(-c2ccc(Br)cc2)c1=O)NC1CCCC1
IC50 [1]: > 66 µM (inactive) | IC50 [2]: > 66 µM (inactive)

O=C(Nc1cccc(Cl)c1)C1CCCN(S(=O)(=O)c2ccc(F)cc2)C1 (configuration not stated)
EC50 [3]: > 260 µM (inactive)

O=C1ON=C(c2ccccc2)/C1=C\c1ccco1
IC50 [4]: 28.2 µM (active)

O=C1/C(=N/n2cnnc2)c2ccccc2N1Cc1ccccc1
IC50 [4]: 24.8 µM (active)

CCCOC(c1ccccc1)(c1ccc(C(F)(F)F)cc1)C(Oc1nc(C)cc(C)n1)C(=O)O (configuration not stated)
EC50 [5]: 8.08 µM (active) | EC50 [6]: 1.91 µM (active) | EC50 [7]: > 160 µM (inactive) | EC50 [8]: 12.4 µM (active) | EC50 [9]: 11.4 µM (active)

COCCSc1nnc(NC(=O)C2CC(=O)N(c3ccc(C)cc3)C2)s1 (configuration not stated)
EC50 [6]: > 38 µM (not active) | EC50 [7]: > 160 µM (inactive)

COc1ccc2c(c1)C(=O)Cc1ccccc1O2
IC50 [4]: 86.7 µM (active)

Cc1ccccc1-n1nnc2c(=O)oc3ccccc3c21
IC50 [10]: 1.13 µM (active) | EC50 [3]: > 260 µM (inactive)

Oc1ccc(/C=N/Nc2ccc(Cl)nn2)cc1O
IC50 [4]: 8.16 µM (active)

CN1C(=O)C2C(c3ccc(N(C)C)cc3)=NN(Cc3ccccc3)C2C1=O (configuration not stated)
IC50 [4]: 19 µM (active) | EC50 [3]: 40.3 µM (active) | IC50 [11]: 43 µM (active)

COc1cc(/C=N/NC(=O)c2ccoc2C)cc(OC)c1O
IC50 [4]: 33.9 µM (active)

COc1ccc(C)cc1N=C(S)NNC(=O)c1c(Br)cnn1C
EC50 [6]: 1.45 µM (active) | EC50 [7]: > 150 µM (inactive)

CC(=O)Oc1cc2oc(=O)cc(C)c2cc1OC(C)=O
IC50 [4]: 21.4 µM (active)

COc1cc(/C=N/NC(=O)CC2C(=O)NN=C2C)ccc1O (configuration not stated)
IC50 [4]: 11.5 µM (active) | IC50 [11]: 53.7 µM (active)

Cc1cc(C(=O)NNc2ccc(Cl)cc2)no1
AC50 [12]: 1.35 µM (active) | EC50 [6]: 0.819 µM (active) | EC50 [7]: 2.59 µM (active)

COc1ccc(S(=O)(=O)N[C@@H](Cc2ccccc2)C(=O)N2CC[C@@]3(O)CCCC[C@H]3C2)cc1
EC50 [3]: > 260 µM (inactive)

CCOC(=O)c1[nH]c2ccc(F)cc2c1NC(=O)c1ccccc1C(=O)O
EC50 [13]: > 150 µM (not active) | EC50 [6]: > 38 µM (not active) | EC50 [14]: > 150 µM (not active) | EC50 [15]: > 150 µM (not active) | EC50 [7]: > 150 µM (inconclusive)

CC(C)(C)c1ccc(/C=C(\c2nc3ccccc3[nH]2)S(=O)(=O)c2ccccc2)cc1
EC50 [16]: 2.77 µM (active) | AC50 [12]: 1.36 µM (active) | AC50 [17]: 6.71 µM (active) | AC50 [18]: 2.19 µM (active) | EC50 [19]: > 60 µM (not active) | EC50 [20]: 0.995 µM (active)

CC(=O)NCCc1nc2ccccc2n1CCOc1cccc(C)c1
EC50 [3]: > 260 µM (inactive)

Cc1c(NC(=O)C(C)N2CC(C)OC(C)C2)c(=O)n(-c2ccccc2)n1C (configuration not stated)
EC50 [3]: > 260 µM (inactive)

CN1CCN(/N=C/c2c[nH]c3ccccc23)CC1
IC50 [4]: 15.4 µM (active)

CCCCn1c(SCC(=O)Nc2cccc(OC)c2)nc2ccc(N3CCOCC3)cc2c1=O
EC50 [6]: > 38 µM (not active) | EC50 [7]: 141 µM (active)
